Assay results reported in patent US20260363239A1, “COMPOSITIONS TO CONTROL LEVEL OF UNDESIRABLE MATERIALS” (Solugen, Inc., priority 2022, published 2026).
Values after ≈ are worked out from the molar mass of the structure shown.

Experiments:
[1] = test system: E. Coli; assay: Minimum inhibitory concentration (MIC) against E. coli; assay type: cell-based; conditions: Escherichia coli
Protocol: (§1) A minimum inhibitory concentration (MIC) of a MUM was determined and compared to that of the biocide glutaraldehyde. Specifically, the indicated compound or blend of compounds was used to treat a wildtype E. coli strain and the effect of this treatment on bacterial count used to determine the MIC.
(§2) However, the mixture of the glyoxal and glycolaldehyde (1,4 dioxane 2,5 diol) provided competitive performance to glutaraldehyde.

[2] = test system: general wild strain bacteria; assay: Minimum inhibitory concentration (MIC) against general wild strain bacteria; assay type: cell-based
Protocol: as §1, §2

Row | Structure (SMILES) | MIC [1] | MIC [2]
1 | OC1COC(O)CO1 (stereo not drawn) [39% 1,4 dioxane 2,5 diol, 1,4 dioxane 2,5 diol] | 1000 µg/mL (≈ 8.33 mM) | > 1000 µg/mL
2 | O=CC=O [39% glyoxal, glyoxal] | 1000 µg/mL (≈ 17.2 mM) | > 1000 µg/mL
3 | O=CCCCC=O [40% glutaraldehyde, glutaraldehyde] | 1000 µg/mL (≈ 9.99 mM) | 1000 µg/mL (≈ 9.99 mM)
